The values below come from the Deep4Chem optical property database.

The nature of the data set: photoluminescence quantum yield (fraction); solvent given as SMILES.

`CC1=[N+]2C(=Cc3cccn3[B-]2(F)F)C=C1` yielded a photoluminescence quantum yield (in CCCCCC) of 0.96, a photoluminescence quantum yield (in CO) of 1 and a photoluminescence quantum yield (in ClCCl) of 0.92.

Turning to `FC(F)(F)c1cc2n(n1)[B-]1(c3ccccc3Oc3ccccc31)[n+]1ccc3ccccc3c1-2`, the photoluminescence quantum yield stood at 0.0026 (in C1CCCCC1), 0.0027 (in Cc1ccccc1) and 0.0029 (in ClCCl).

`COc1ccc(/C=C/c2ccncn2)cc1`: where the note is “in ClCCl”, the photoluminescence quantum yield amounted to 0.01.

As for `CN(C)c1ccc2c(-c3cc(N)ccc3C(=O)[O-])c3ccc(=[N+](C)C)cc-3oc2c1`, the photoluminescence quantum yield reads like this: (in CCO) 0.016; (in O) 0.022.

As to `CCCCCCc1ccsc1-c1ccc2c(c1)C1=[N+]3C2=Cc2c4ccc(-c5sccc5CCCCCC)cc4c4n2[B-]3(Oc2ccccc21)Oc1ccccc1-4` (stereo not given), the photoluminescence quantum yield (in C1CCOC1) turned out to be 0.

`Cc1cc(C)c(C2=[N+]3C(=Cc4c(C)cc(C)n4[B-]3(F)F)c3ccccc32)[nH]1`: the photoluminescence quantum yield by setting is: (in C1CCOC1) 0.06; (in CC#N) 0.02; (in CCCCCC) 0.85; (in CO) 0.03; (in Cc1ccccc1) 0.81; (in ClCCl) 0.61.

For the molecule `COc1ccc(-c2cc3ccccc3p2-c2ccccc2)cc1` (stereo not given), the photoluminescence quantum yield (in C1CCOC1) was determined as 0.09.

Take `Cc1cnc(NC(=O)C2=C([O-])c3ccccc3S(=O)(=O)N2C)s1`: the photoluminescence quantum yield runs as follows: (in CC#N) 0.00144; (in CCCCO) 0.0114; (in CCCO) 0.00864; (in CCO) 0.00427; (in CO) 0.00252.

The molecule `Cc1ccc(C(=O)/N=c2\oc3cccc4c5c(-c6ccccc6)oc6cccc(c(c2-c2ccccc2)c34)c65)cc1` showed a photoluminescence quantum yield (in ClC(Cl)Cl) of 0.17.

Turning to `CCN1\C(=C/C=C/C=C/C2=[N+](CC)c3ccc4cc(Br)ccc4c3C2(C)C)C(C)(C)c2c1ccc1cc(Br)ccc21`, where the note is “in CS(C)=O”, the photoluminescence quantum yield is 0.381.

Molecule `Cc1ccc(N2C(c3ccccc3[N-]S(=O)(=O)c3ccc(C)cc3)=[NH+]C(c3ccccc3)C2c2ccccc2)cc1` (stereo not given) had a photoluminescence quantum yield (in Cc1ccccc1) of 0.396.

Consider `F[B-]1(F)N2C=CN=CC2=[N+]2[N+]1=Cc1c(-c3ccccc3)cc(-c3cccs3)n1[B-]2(F)F`, for which, where the note is “in ClCCl”, the photoluminescence quantum yield is 0.45.

As for `CC(C)[Si](C#Cc1c2nsnc2c(C#C[Si](C(C)C)(C(C)C)C(C)C)c2nc3c(ccc4cc5ccccc5cc43)nc12)(C(C)C)C(C)C`, the photoluminescence quantum yield (in CCCCCC) was determined as 0.13.

For the molecule `N#Cc1cc2ccc(O)cc2oc1=N`, the photoluminescence quantum yield (in C1CCOC1) was found to be 0.0262; the photoluminescence quantum yield (in CC#N) was 0.0086; the photoluminescence quantum yield (in CCOC(C)=O) is 0.072; the photoluminescence quantum yield (in CS(C)=O) was 0.0022; the photoluminescence quantum yield (in ClC(Cl)Cl) stood at 0.0342.

For the molecule `CC1=C(C(C)(C)C)C(C)=[N+]2C1=C(C)c1c(C)c(C(C)(C)C)c(C)n1[B-]2(F)F`, the photoluminescence quantum yield by setting is: (in C1CCCCC1) 0.32; (in C1CCOC1) 0.37; (in C1COCCO1) 0.4; (in CC#N) 0.44; (in CC(C)=O) 0.44; (in CC(C)CC(C)(C)C) 0.4. Moreover, the photoluminescence quantum yield was determined as 0.4 (in CCC(C)C); 0.46 (in CCCC(C)=O); 0.43 (in CCCCCC); 0.41 (in CCCCCCCCO); 0.42 (in CCCCCCO); 0.39 (in CCCCO). Further, the photoluminescence quantum yield runs as follows: (in CCCCOC(C)=O) 0.43; (in CCCO) 0.39; (in CCO) 0.43; (in CCOC(C)=O) 0.44; (in CCOCC) 0.43; (in CN(C)C=O) 0.35. In addition, the photoluminescence quantum yield came out at 0.47 (in CNC=O), 0.48 (in CO), 0.48 (in COC(C)=O) and 0.49 (in OCC(F)(F)F).

Turning to `COc1cc(/C=C2/SC(=O)NC2=O)ccc1O`, the photoluminescence quantum yield was 0.018 (in C1CCCCC1); 0.017 (in C1COCCO1); 0.01 (in CC#N); 0.023 (in CN(C)C=O); 0.012 (in CO); 0.011 (in O). Also, the photoluminescence quantum yield is, setting by setting: (in OCC(O)CO) 0.35; (in OCCO) 0.104.

Turning to `C1=Cc2ccccc2C(=Cc2ccc(C=C3c4ccccc4-c4ccccc43)cc2)c2ccccc21`, the photoluminescence quantum yield (in C1CCOC1) was determined as 4e-05.

With `COc1ccc2c3ccc(OC)cc3n(-c3ccc(-c4nnc(-c5c(C)cc(C)cc5C)o4)cc3C)c2c1`, for the setting “in Cc1ccccc1”, the photoluminescence quantum yield was determined as 0.06.

As for `O=C([O-])c1c(Cl)c(Cl)c(Cl)c(Cl)c1-c1c2cc(I)c(=O)c(I)c-2oc2c(I)c([O-])c(I)cc12`, the photoluminescence quantum yield is, setting by setting: (in CC(C)O) 0.14; (in CCO) 0.11; (in CO) 0.08; (in O) 0.018.

As for `C#CCn1c2ccccc2c2cc(/C=C/c3cc(C)c4n3[B-](F)(F)[N+]3=C(C)C=C(C)C3=C4c3ccc(I)cc3)ccc21`, the photoluminescence quantum yield came out at 0.77 (in CC#N), 0.72 (in CS(C)=O) and 0.66 (in ClC(Cl)Cl).

`Cc1ccc2c(c1)C1(c3ccccc3-c3ccccc31)c1cc(C)ccc1N2c1ccc(-c2ncccn2)cc1`: under “in O=P(c1ccccc1)(c1ccccc1)c1ccc2oc3ccc(P(=O)(c4ccccc4)c4ccccc4)cc3c2c1”, the photoluminescence quantum yield worked out at 0.91.

In turn, `C(=C\c1cc(-c2ccc3ccccc3c2)c(/C=C/c2ccc(N(c3ccccc3)c3ccccc3)cc2)cc1-c1ccc2ccccc2c1)/c1ccc(N(c2ccccc2)c2ccccc2)cc1` had a photoluminescence quantum yield (in ClCCl) of 0.59.

For the molecule `COc1cc(C2=CC(c3ccccc3)=C(c3ccccc3)C2)cc(OC)c1OC`, the photoluminescence quantum yield (in ClCCl) was 0.0137.

`c1cc2c3c(c1)-c1ccc4c5c(ccc(c15)B3c1ccc3c5c(ccc-2c15)CC3)CC4` returned a photoluminescence quantum yield (in Cc1ccccc1) of 0.79.

Regarding `CCCN1c2ccccc2Sc2cc(/C=C\c3cc(=O)oc4cc(C)ccc34)ccc21`, the photoluminescence quantum yield (in ClC(Cl)Cl) was found to be 0.27.

Under “in C1CCOC1”, `CC(C)(C)c1cc2c(c(C(C)(C)C)c1)O[B-]1(c3ccc([B-]45OC(c6ccccc6)=N[N+]4=Cc4cc(C(C)(C)C)cc(C(C)(C)C)c4O5)cc3)OC(c3ccccc3)=N[N+]1=C2` (stereo not given) showed a photoluminescence quantum yield of 0.001.

Regarding `COc1ccc2cc3c(C)cc(=O)oc3cc2c1`, the photoluminescence quantum yield came to 0.0071 (in CC#N); 0 (in CCCCCC); 0.13 (in CCO); 0.0006 (in CCOC(C)=O); 0.21 (in CO); 0.011 (in ClC(Cl)Cl). This molecule gave a photoluminescence quantum yield (in OCC(F)(F)F) of 0.33.

For the molecule `CCCCCOc1ccc2c(c1)c1ccc3cccc4c5cccc6oc(=O)c2c(c65)c1c34`, the photoluminescence quantum yield (in C1CCOC1) was found to be 0.529.

For `N#Cc1c(-n2c3ccccc3c3ccccc32)c(F)c(-n2c3ccccc3c3ccccc32)c(-n2c3ccccc3c3ccccc32)c1-n1c2ccccc2c2ccccc21`, the photoluminescence quantum yield runs as follows: (in Cc1ccccc1) 0.81; (in c1ccc([Si](c2ccccc2)(c2ccc(-n3c4ccccc4c4ccccc43)cc2)c2ccc(-n3c4ccccc4c4ccccc43)cc2)cc1) 1.

Take `c1ccc2c(c1)-c1ccccc1C21c2ccccc2N(c2ccc(-c3nc([C@]45CC6CC(C[C@@H](C6)C4)C5)nc([C@]45C[C@H]6C[C@@H](C[C@H](C6)C4)C5)n3)cc2)c2ccccc21`: the photoluminescence quantum yield amounted to 0.67 (in CC1(C)c2ccccc2N(c2cccc(N3c4ccccc4C(C)(C)c4ccccc43)c2)c2ccccc21), 0.76 (in CC(C)(C)c1ccc(-n2c3ccc([Si](c4ccccc4)(c4ccccc4)c4ccccc4)cc3c3cc([Si](c4ccccc4)(c4ccccc4)c4ccccc4)ccc32)cc1), 0.36 (in Cc1cc(-n2c3ccccc3c3ccccc32)ccc1-c1ccc(-n2c3ccccc3c3ccccc32)cc1C) and 0.84 (in O=P(c1ccccc1)(c1ccccc1)c1ccc([Si](c2ccccc2)(c2ccccc2)c2ccccc2)cc1).

`CC(C)[Si](C#Cc1c2ccccc2c(C#C[Si](C(C)C)(C(C)C)C(C)C)c2nc3c(nc12)C1c2ccccc2C3c2ccccc21)(C(C)C)C(C)C` returned a photoluminescence quantum yield (in CCCCCC) of 0.7.

As to `CC(C)(C)c1ccc(C#Cc2cc3c(C#Cc4ccc(C(C)(C)C)cc4)c(C#Cc4ccc(C(C)(C)C)cc4)c4cc(C#Cc5ccc(C(C)(C)C)cc5)cc5c(C#Cc6ccc(C(C)(C)C)cc6)c(C#Cc6ccc(C(C)(C)C)cc6)c(c2)c3c45)cc1`, the photoluminescence quantum yield (in ClCCl) was 0.23.

With `N#Cc1coc2ccccc2c1=O`, the photoluminescence quantum yield (in C1CCOC1) came out at 0.035; the photoluminescence quantum yield (in C1COCCO1) is 0.0009; the photoluminescence quantum yield (in CC#N) came to 0.0005; the photoluminescence quantum yield (in CC(C)O) was found to be 0.001; the photoluminescence quantum yield (in CCCCO) came out at 0.003; the photoluminescence quantum yield (in CCCO) was 0.001. In addition, the photoluminescence quantum yield by setting is: (in CCOC(C)=O) 0.002; (in CN(C)C=O) 0.001; (in CO) 0.003; (in CS(C)=O) 0.003; (in ClC(Cl)Cl) 0.002; (in O) 0.001.

The molecule `CN(C)c1ccc2cc3ccc(=[N+](C)C)cc-3oc2c1` had a photoluminescence quantum yield (in CCO) of 0.48 and a photoluminescence quantum yield (in O) of 0.38.

Regarding `N#Cc1nc2c(nc1C#N)C1c3ccc(N(c4ccccc4)c4ccccc4)cc3C2c2ccc(N(c3ccccc3)c3ccccc3)cc21`, the photoluminescence quantum yield (in C1CCCCC1) came to 0.55, the photoluminescence quantum yield (in CC#N) was found to be 0.001, the photoluminescence quantum yield (in Cc1ccccc1) came out at 0.25 and the photoluminescence quantum yield (in ClCCl) stood at 0.002.

The molecule `O=P1(c2ccccc2)C(c2ccc(N(c3ccccc3)c3ccccc3)cc2)=Cc2ccccc21` (stereo not given) had a photoluminescence quantum yield (in ClCCl) of 0.81.

As to `Cn1nc(-c2ccccc2)c2nc3cc(Cl)ccc3nc21`, the photoluminescence quantum yield stood at 0.58 (in C1CCCCC1), 0.27 (in C1CCOC1) and 0.08 (in CC#N).
